Patent US20260176289A1, “SMALL MOLECULE INHIBITORS OF KRAS PROTEINS” (Merck Sharp & Dohme LLC, priority 2022, published 2026)

Experiments:
KRAS-WT = KRAS-WT (Homo sapiens, UniProt P01116); assay: SOS-catalyzed nucleotide exchange assay (Procedure A, TR-FRET), KRAS-WT; type: biochemical; details: nucleotide exchange, read-out: KRAS WT GNE IC50
Procedure, shortened: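 Compounds (10-point, 3-fold) were preincubated 60 min at room temperature with a biotinylated RAS/Bodipy-GDP/Tb-streptavidin TR-FRET complex. Exchange was started with human SOS plus 3 mM GTP. RAS/SOS: G12C 3/40 nM, WT 1/40 nM, NRAS 1.25/40 nM (60 min); G12V 1.25/160 nM (90 min). The 520/495 ratio was fit four-parameter.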

KRAS-G13D = KRAS-G13D (Homo sapiens, UniProt P01116, G13D); assay: SOS-catalyzed nucleotide exchange assay (Procedure A, TR-FRET), KRAS-G13D; type: biochemical; details: nucleotide exchange, Procedure A; read-out: KRAS G13D GNE IC50
Chain of KRAS-G13D (P01116 with tags, fused parts or gaps isoform P01116-2 G13D): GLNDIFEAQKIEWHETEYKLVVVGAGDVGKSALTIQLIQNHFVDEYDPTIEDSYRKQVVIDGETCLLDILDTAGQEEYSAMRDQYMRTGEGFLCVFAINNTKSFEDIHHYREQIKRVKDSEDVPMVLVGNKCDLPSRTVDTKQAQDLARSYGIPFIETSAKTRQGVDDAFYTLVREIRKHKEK

PANC08.13 cells = assay: Cellular phospho-ERK assay, PANC08.13 cells (homozygous KRAS-G12D); type: cell-based; details: Homo sapiens, PANC-08-13, KRAS-G12D, 2 hours, read-out: PANC-08.13 pERK IC50
Procedure, shortened: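 Overnight-plated cells on collagen received test compound (up to 30 μM final, threefold steps, ten concentrations) for two hours. After lysis at room temperature, phosphorylated and total ERK were quantified together by Alpha SureFire, and IC50 is based on the phospho-to-total signal ratio.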

Chain of KRAS-WT (P01116 with tags, fused parts or gaps isoform P01116-2): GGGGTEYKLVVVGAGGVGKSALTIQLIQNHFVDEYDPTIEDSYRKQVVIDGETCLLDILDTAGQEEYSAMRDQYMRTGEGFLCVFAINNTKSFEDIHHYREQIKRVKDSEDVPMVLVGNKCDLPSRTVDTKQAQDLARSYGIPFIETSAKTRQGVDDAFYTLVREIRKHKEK

SMILES: C#Cc1c(F)ccc2cc(O)cc(-c3nccc4c5c(N6CCOC[C@@](C)(O)C6)nc(OC[C@@]67CCCN6C[C@H](F)C7)nc5n(C)c34)c12 [Ex-18, (S)-4-(8-(8-ethynyl-7-fluoro-3-hydroxynaphthalen-1-yl)-2-(((2R,7aS)-2-fluorotetrahydro-1H-pyrrolizin-7a(5H)-yl)methoxy)-9-methyl-9H-pyrido[4′,3′:4,5]pyrrolo[2,3-d]pyrimidin-4-yl)-6-methyl-1,4-oxazepan-6-ol]
- IC50 (KRAS-WT): 1.46 nM
- IC50 (KRAS-G13D): 2.66 nM
- IC50 (PANC08.13 cells): 4.54 nM
